Holding throughout (format): functional
The subject of one assay is HT-29. Briefly: Cytotoxicity against human HT-29 cells by sulforhodamine B assay.
The subject of a further assay is MDA-MB-231. Briefly: Cytotoxicity against human MDA-MB-231 cells by sulforhodamine B assay. On the technique in general: In SRB staining, fixed cells bind dye roughly in proportion to their protein.
Another assay relates to A549. Kind of assay: Cytotoxicity against human A549 cells by sulforhodamine B assay.

Calls of active or inactive are those of the source. No cut-off for these calls is given here.

As a reminder, the GI50 is the concentration that inhibits growth by half. A high value points to lower sensitivity of the cells.

With `Cc1cc2c(cc1Cl)[C@@H](C)CCCC(C)(C)O2`, the 50% growth inhibitory concentration (GI50) is 37.6 µM with HT-29, 37.6 µM in the assay on MDA-MB-231 and 37.2 µM with A549.
For `Cc1cc2c(cc1Br)[C@@H](C)CCCC(C)(C)O2`, the outcome with HT-29, in the assay with MDA-MB-231 and with A549 was inactive.
In the case of `COc1cc2c(cc1O)CCN[C@]21CS[C@@H]2c3c(OC(C)=O)c(C)c4c(c3[C@H](COC1=O)N1[C@@H]2[C@H]2c3c(cc(C)c(OC)c3O)C[C@@H]([C@@H]1O)N2C)OCO4` [TRABECTEDIN], the GI50 turned out to be 0.0197 µM with HT-29, 0.0184 µM with MDA-MB-231 and 0.0263 µM with A549.

Values taken from ChEMBL document CHEMBL1151274, “Halogenated helianane derivatives from the sponge Spirastrella hartmani” (2005).
